Laboratory results as given in patent US20240268395A1, “ANTIFUNGAL PROTEIN COMPOSITION” (GEAENZYMES CO., priority 2019, published 2024).
Ends that are not written are not given here.

Tests used:
[1] = tested on: Trichoderma reesei, Fusarium oxysporum, Rhizopus oligosporum, Aspergillus niger and two environmental isolates; test: Fungal inhibition in agar plates containing embedded antifungal peptides; assay type: cell-based; settings: 150 μg/ml, without carrier protein
Protocol: FIG. 1. Fungal inhibition in agar plates containing a composition comprising Antifungal Peptide SEQ ID NO: 1 after 2 days at 30° C. Fungal strains inoculated in the plate: 1: Trichoderma reesei; 2: Fusarium oxysporum; 3: Rhizopus oligosporum; 4: household environmental isolated; 5: Aspergillus niger; 6: bread contamination environmental isolate. Panel A: 150 μg/ml of peptidic antifungal composition with six histidine amino-terminal residues. Panel B: 150 μg/ml of peptidic antifungal composition with six histidine amino-terminal residues pre-treated for 10 minutes at 90° C. Panel C: 175 μg/ml of peptidic antifungal composition fused to a carrier protein. Panel D: negative control without peptidic antifungal composition.
Antifungal peptide having an amino acid sequence as set forth in SEQ ID NO: 1 (Table 1) was genetically fused to 6 amino-terminal histidine residues, expressed and produced in a recombinant manner in Escherichia coli, and after cell lysis, peptide purified using immobilized metal affinity chromatography (IMAC) with nickel resin. A second variant of antifungal peptide having an amino acid sequence as set forth in SEQ ID NO: 1 was also generated, fusing the antifungal peptide to a carrier protein. […] Fungal inhibition was then assessed in agar plates containing embedded antifungal peptides, incubating 2 days at 30° C. […]

Aspergillus niger = test: Agar dilution assay, inhibition of mycelial growth from spores; assay type: cell-based; settings: fused to carrier solubility protein
Description: FIG. 8. Agar dilution assay to assess the antifungal activity of the peptide-protein fusion SEQ ID NO: 1-MBP against Aspergillus niger. Left, representative images of agar dilution assays performed with serial dilutions of antifungal peptide-MBP fusions added to agar before solidification. Assays tested for the inhibition of mycelial growth from A. niger spores. Protein storage buffer was used as a negative control for growth inhibition, and Zeocin was used as positive control. Right, IC50 values for the peptide-protein fusion SEQ ID NO: 1-MBP. Aggregated results from up to three independent experiments were used to interpolate IC50 from the fitted curve.
FIGS. 9A-9B. Agar dilution assay comparing the antifungal activity of the peptide-protein fusions SEQ ID NO: 28-MBP and SEQ ID NO: 29-MBP against Aspergillus niger. FIG. 9A: Representative images of agar dilution assays performed with serial dilutions of antifungal peptide-MBP fusions added to agar before solidification. Assays tested for the inhibition of mycelial growth from A. niger spores. […]
To further test the versatility of antifungal peptides, these were genetically fused to a variety of different carrier solubility proteins, and their antifungal activity tested. […] Mycelium length was then estimated and analyzed (FIGS. 3, 4, and 5). […]

| Sequence | fungal growth in agar plates compared with control ([1]; six histidine amino-terminal residues, 2 days at 30° C.) | activity after pre-incubation at 90° C. (thermostability) ([1]; pre-treated for 10 minutes at 90° C.) | potency at sub-MIC concentrations (reflected in the IC50), comparison of the three peptides (Aspergillus niger) |
| --- | --- | --- | --- |
| VGECVRGRCPSGMCCSQFGYCGKGPKYCGR (not fully specified (N-terminus); cysteine pairing not given here) [SEQ ID NO: 1, tested genetically fused to 6 amino-terminal histidine residues, produced recombinantly in Escherichia coli] | impacts the growth of all fungi when compared with the control condition, although to a lesser extent with the environmental fungal isolates | does not impair its activity |  |
| KRCGSQAGCPNGHCCSQYGFCGFGPEYCGRG [SEQ ID NO: 29] |  |  | highest potency |
